Laboratory results taken from patent US9125849B2, “TOMM34 peptides and vaccines including the same” (ONCOTHERAPY SCIENCE, INC., priority 2010, dated 2015).
Non-standard residues stand in square brackets, D forms with d. No end group written: not given here.

Columns and labels:
[1] = system: peptide-pulsed T2 cells; assay: In vitro CTL induction, IFN-gamma ELISPOT assay; type: cell-based, human; details: CTLs induced with peptide-pulsed DCs from HLA-A*0201 positive donor, vs target cells not pulsed with peptide
Excerpt: Monocyte-derived dendritic cells (DCs) were used as antigen-presenting cells to induce cytotoxic T lymphocyte (CTL) responses against peptides presented on human leukocyte antigen (HLA). DCs were generated in vitro as described elsewhere (Nakahara S et al., Cancer Res 2003 Jul. 15, 63(14): 4112-8). Specifically, peripheral blood mononuclear cells isolated from a normal volunteer (HLA-A*0201 positive) by Ficoll-Paque plus (Pharmacia) solution were separated by adherence to a plastic tissue culture dish (Becton Dickinson) so as to enrich them as the monocyte fraction. The monocyte-enriched population was cultured in the presence of 1000 U/ml of granulocyte-macrophage colony-stimulating factor (R&D System) and 1000 U/ml of interleukin (IL)-4 (R&D System) in AIM-V Medium (Invitrogen) containing 2% heat-inactivated autologous serum (AS). After 7 days of culture, the cytokine-induced DCs were pulsed with 20 micro-g/ml of each of the synthesized peptides in the presence of 3 micro-g/ml of beta 2-microglobulin for 3 hr at 37 degrees C. in AIM-V Medium. The generated cells appeared to express DC-associated molecules, such as CD80, CD83, CD86 and HLA class II, on their cell surfaces (data not shown). These peptide-pulsed DCs were then inactivated by X ray-irradiated (20 Gy) and mixed at a 1:20 ratio with autologous CD8+ T cells, obtained by positive selection with CD8 Positive Isolation Kit (Dynal). These cultures were set up in 48-well plates (Corning); each well contained 1.5×10^4 peptide-pulsed DCs, 3×10^5 CD8+ T cells and 10 ng/ml of IL-7 (R&D System) in 0.5 ml of AIM-V/2% AS medium. Three days later, these cultures were supplemented with IL-2 (CHIRON) to a final concentration of 20 IU/ml. On day 7 and 14, the T cells were further stimulated with the autologous peptide-pulsed DCs. The DCs were prepared each time by the same way described above. CTL was tested against peptide-pulsed T2 cells after the 3rd round of peptide stimulation on day 21 (Tanaka H et al., Br J Cancer 2001 Jan. 5, 84(1): 94-9; Umano Y et al., Br J Cancer 2001 Apr. 20, 84(8): 1052-7; Uchida N et al., Clin Cancer Res 2004 Dec. 15, 10(24): 8577-86; Suda T et al., Cancer Sci 2006 May, 97(5): 411-9; Watanabe T et al., Cancer Sci 2005 August, 96(8): 498-506).
(§1) Peptide-pulsed T2 (1×10^4/well) was prepared as stimulator cells. Cultured cells in 48 wells were used as responder cells. IFN-gamma ELISPOT assay and IFN-gamma ELISA assay were performed under manufacture procedure.

[2] = system: COS7 cells transfected with both TOMM34 and HLA-A*0201; assay: Specific CTL activity against target cells expressing TOMM34 and HLA-A*0201; type: cell-based, African green monkey; details: COS7 cells expressing both TOMM34 and HLA-A*0201; listed as TOMM34-A02-9-30
Excerpt: (§2) The cDNA encoding an open reading frame of target genes or HLA-A*0201 was amplified by PCR. The PCR-amplified product was cloned into expression vector. The plasmids were transfected into COS7, which is the target genes and HLA-A*0201-null cell line, using lipofectamine 2000 (Invitrogen) according to the manufacturer's recommended procedures. After 2 days from transfection, the transfected cells were harvested with versene (Invitrogen) and used as the stimulator cells (5×10^4 cells/well) for CTL activity assay.
(§3) The established CTL line raised against TOMM34-A02-9-30 (SEQ ID NO: 1) peptide was examined for the ability to recognize target cells that express TOMM34 and HLA-A*0201 molecule. COS7 cells transfected with both the full length of TOMM34 and HLA-A*0201 gene (a specific model for the target cells that express TOMM34 and HLA-A*0201 gene) were prepared as stimulator cells, and COS7 cells transfected with either full length of TOMM34 or HLA-A*0201 were used as the controls.

[3] = system: peptide-pulsed T2 cells; assay: CTL line activity, IFN-gamma ELISA; type: cell-based, human; details: CTL line stimulated with peptide; target cells pulsed with peptide vs without peptide pulse
Method: CTLs were expanded in culture using the method similar to the one described by Riddell et al. (Walter E A et al., N Engl J Med 1995 Oct. 19, 333(16): 1038-44; Riddell S R et al., Nat Med 1996 February, 2(2): 216-23). A total of 5×10^4 CTLs were suspended in 25 ml of AIM-V/5% AS medium with 2 kinds of human B-lymphoblastoid cell lines, inactivated by Mitomycin C, in the presence of 40 ng/ml of anti-CD3 monoclonal antibody (Pharmingen). One day after initiating the cultures, 120 IU/ml of IL-2 were added to the cultures. The cultures were fed with fresh AIM-V/5% AS medium containing 30 IU/ml of IL-2 on days 5, 8 and 11 (Tanaka H et al., Br J Cancer 2001 Jan. 5, 84(1): 94-9; Umano Y et al., Br J Cancer 2001 Apr. 20, 84(8): 1052-7; Uchida N et al., Clin Cancer Res 2004 Dec. 15, 10(24): 8577-86; Suda T et al., Cancer Sci 2006 May, 97(5): 411-9; Watanabe T et al., Cancer Sci 2005 August, 96(8): 498-506).
as §1

[4] = system: peptide-pulsed T2 cells; assay: CTL clone activity, IFN-gamma ELISA; type: cell-based, human; details: CTL clone established by limiting dilution from the CTL line; target cells pulsed with peptide; listed as TOMM34-A02-9-30
Method: The dilutions were made to have 0.3, 1, and 3 CTLs/well in 96 round-bottomed micro titer plate (Nalge Nunc International). CTLs were cultured with 1×10^4 cells/well of 2 kinds of human B-lymphoblastoid cell lines, 30 ng/ml of anti-CD3 antibody, and 125 U/ml of IL-2 in a total of […] of AIM-V Medium containing 5% AS. 50 micro-1/well of IL-2 were added to the medium 10 days later so to reach a final concentration of 125 U/ml IL-2. CTL activity was tested on the 14th day, and CTL clones were expanded using the same method as described above (Uchida N et al., Clin Cancer Res 2004 Dec. 15, 10(24): 8577-86; Suda T et al., Cancer Sci 2006 May, 97(5): 411-9; Watanabe T et al., Cancer Sci 2005 August, 96(8): 498-506).
as §1

[5] = system: COS7 cells transfected with either full length of TOMM34 or HLA-A*0201; assay: Specific CTL activity against control target cells; type: cell-based, African green monkey; details: control COS7 cells expressing either HLA-A*0201 or TOMM34
Excerpt: as §2, §3

KLPSiPLVPV (KLPS[code i]PLVPV; not fully specified; printed as KLPSiPLVPV) [SEQ ID NO: 21]
peptide specific CTL activity (IFN-gamma production) by IFN-gamma ELISPOT ([1]; listed as TOMM34-A02-10-143): specific IFN-gamma production was not observed

ALYGrALRVL (ALYG[code r]ALRVL; not fully specified; printed as ALYGrALRVL) [SEQ ID NO: 31]
peptide specific CTL activity (IFN-gamma production) by IFN-gamma ELISPOT [1]: potent IFN-gamma production

LLCSNLESA [SEQ ID NO: 5]
peptide specific CTL activity (IFN-gamma production) by IFN-gamma ELISPOT [1]: potent IFN-gamma production

LLCSnLESAT (LLCS[code n]LESAT; not fully specified; printed as LLCSnLESAT) [SEQ ID NO: 32]
peptide specific CTL activity (IFN-gamma production) by IFN-gamma ELISPOT [1]: potent IFN-gamma production

ALYGRALRV [SEQ ID NO: 1]
peptide specific CTL activity (IFN-gamma production) by IFN-gamma ELISPOT [1]: potent IFN-gamma production | specific CTL activity of the CTL line [2]: potent CTL activity | IFN-gamma production of the CTL line by IFN-gamma ELISA [3]: potent IFN-gamma production | IFN-gamma production of the CTL clone by IFN-gamma ELISA [4]: potent IFN-gamma production | specific CTL activity of the CTL line [5]: no significant specific CTL activity was detected
